{
  "source": "patent US20260125374A1",
  "about": "“PI3K-ALPHA INHIBITORS AND METHODS OF MAKING AND USING THE SAME” (Relay Therapeutics, Inc., priority 2021, published 2026)",
  "key": {"[1]": {"assay": "Hygroscopicity by DVS", "type": "physicochemical", "method": "• Method 1 (for I-1 Form A and I-3 Form A) • Instrument Intrinsic, Advantage or Adventure • Total gas flow 200 sccm • Oven temperature 25° C. • Solvent Water • Method Cycle: 40-0-95-0-40% RH • Stage Step: 10% • Equilibrium: 0.002 dm/dt (%/min) • Minimum dm/dt stability duration: 60 min • Maximum dm/dt stage time: 360 min • Method 2 (for I-4 Form A) • Instrument Intrinsic, Advantage or Adventure • Total gas flow 200 sccm • Oven temperature 25° C. • Solvent Water • Method Cycle: 40-95-0-95-40% RH • Stage Step: 10% • Equilibrium: 0.002 dm/dt (%/min) • Minimum dm/dt stability duration: 60 min • Maximum dm/dt stage time: 360 min\nI-1 Form A is hygroscopic. It absorbs about 5.5% water by weight from 40% RH to 95% RH. […] It absorbs about 40% water by weight from 40% RH to 95% RH. Form changed after the DVS test. […] It starts to absorb water when RH>40% and potential hydrate form generates at high humidity based on DVS data. The sorption and desorption are reversible.\nWater sorption and desorption behavior of I-1 Form A, I-3 Form A, and I-4 Form A was investigated by DVS at 25° C. with a cycle of 40-0-95-0-40% RH, dm/dt 0.002, min. equilibration time 60 min and max. equilibration time 360 min. XRPD was measured after the DVS test to determine form change."}, "[2]": {"assay": "Salt screening (XRPD, chiral purity of hits)", "type": "physicochemical", "method": "Based on the pKa of I-1 free form, 23 counter ions were selected as salt/cocrystal forming agents. Methanol, acetone and isopropyl acetate were used as screening solvents. 1.0 equivalent of selected counter ions/coformers was applied for salt screening. Slurry equilibration, slow evaporation and anti-solvent addition were used as crystallization methods. In total, about 70 screening experiments were conducted.\nAbout 50 mg of I-1 Form A were added to a suitable amount of solvent and 1.0 equivalent of counter ions were added under stirring at 50° C. for 2 hours and then at 25° C. for at least 12 hours. MeOH, acetone and IPAc were used as screening solvents.\nObtained suspensions were taken out and centrifuged. Solids obtained were analyzed by XRPD and salt screening results were summarized in Table 5.1, Table 5.2, and Table 5.3."}, "[3]": {"conditions": "DVS 25° C., 0% RH, listed as I-4 Form A"}, "[4]": {"conditions": "DVS 25° C., 10% RH, listed as I-4 Form A"}, "[5]": {"conditions": "DVS 25° C., 20% RH, listed as I-4 Form A"}, "[6]": {"conditions": "DVS 25° C., 30% RH, listed as I-4 Form A"}, "[7]": {"conditions": "DVS 25° C., 40% RH, listed as I-4 Form A"}, "[8]": {"conditions": "DVS 25° C., 50% RH, listed as I-4 Form A"}, "[9]": {"conditions": "DVS 25° C., 60% RH, listed as I-4 Form A"}, "[10]": {"conditions": "DVS 25° C., 70% RH, listed as I-4 Form A"}, "[11]": {"conditions": "DVS 25° C., 80% RH, listed as I-4 Form A"}, "[12]": {"conditions": "DVS 25° C., 90% RH, listed as I-4 Form A"}, "[13]": {"conditions": "DVS 25° C., 95% RH, listed as I-4 Form A"}, "[14]": {"conditions": "crystalline hits of salt screening, listed as I-4 Form A"}},
  "data": [
    {"smiles": "N#Cc1c(-c2cc(NC(=O)c3cc(F)cc(C(F)(F)F)c3)c3c(c2)C(=O)N[C@H]3c2cc(F)ccc2Cl)ccc2ncnn12", "note": "[Compound I-4]", "values": [
      {"measurement": "1st Desorp. (%)", "setting": "[1]; [3]", "value": 0.01, "unit": "%"},
      {"measurement": "2nd Sorp. (%)", "setting": "[1]; [3]", "value": 0.01, "unit": "%"},
      {"measurement": "1st Desorp. (%)", "setting": "[1]; [4]", "value": 1.52, "unit": "%"},
      {"measurement": "2nd Sorp. (%)", "setting": "[1]; [4]", "value": 0.98, "unit": "%"},
      {"measurement": "1st Desorp. (%)", "setting": "[1]; [5]", "value": 2.78, "unit": "%"},
      {"measurement": "2nd Sorp. (%)", "setting": "[1]; [5]", "value": 1.76, "unit": "%"},
      {"measurement": "1st Desorp. (%)", "setting": "[1]; [6]", "value": 3.61, "unit": "%"},
      {"measurement": "2nd Sorp. (%)", "setting": "[1]; [6]", "value": 2.64, "unit": "%"},
      {"measurement": "1st Desorp. (%)", "setting": "[1]; [7]", "value": 4.52, "unit": "%"},
      {"measurement": "1st Sorp. (%)", "setting": "[1]; [7]", "value": 1.62, "unit": "%"},
      {"measurement": "2nd Desorp. (%)", "setting": "[1]; [7]", "value": 4.51, "unit": "%"},
      {"measurement": "2nd Sorp. (%)", "setting": "[1]; [7]", "value": 3.57, "unit": "%"},
      {"measurement": "1st Desorp. (%)", "setting": "[1]; DVS 25° C., 50% RH", "value": 5.78, "unit": "%"},
      {"measurement": "2nd Sorp. (%)", "setting": "[1]; DVS 25° C., 50% RH", "value": 4.63, "unit": "%"},
      {"measurement": "1st Sorp. (%)", "setting": "[1]; [8]", "value": 3.50, "unit": "%"},
      {"measurement": "2nd Desorp. (%)", "setting": "[1]; [8]", "value": 5.71, "unit": "%"},
      {"measurement": "1st Desorp. (%)", "setting": "[1]; DVS 25° C., 60% RH", "value": 7.60, "unit": "%"},
      {"measurement": "2nd Sorp. (%)", "setting": "[1]; DVS 25° C., 60% RH", "value": 6.22, "unit": "%"},
      {"measurement": "1st Sorp. (%)", "setting": "[1]; [9]", "value": 4.75, "unit": "%"},
      {"measurement": "2nd Desorp. (%)", "setting": "[1]; [9]", "value": 7.44, "unit": "%"},
      {"measurement": "1st Desorp. (%)", "setting": "[1]; DVS 25° C., 70% RH", "value": 11.14, "unit": "%"},
      {"measurement": "2nd Sorp. (%)", "setting": "[1]; DVS 25° C., 70% RH", "value": 9.34, "unit": "%"},
      {"measurement": "1st Sorp. (%)", "setting": "[1]; [10]", "value": 6.87, "unit": "%"},
      {"measurement": "2nd Desorp. (%)", "setting": "[1]; [10]", "value": 10.54, "unit": "%"},
      {"measurement": "1st Desorp. (%)", "setting": "[1]; DVS 25° C., 80% RH", "value": 16.84, "unit": "%"},
      {"measurement": "2nd Sorp. (%)", "setting": "[1]; DVS 25° C., 80% RH", "value": 15.03, "unit": "%"},
      {"measurement": "1st Sorp. (%)", "setting": "[1]; [11]", "value": 12.16, "unit": "%"},
      {"measurement": "2nd Desorp. (%)", "setting": "[1]; [11]", "value": 17.11, "unit": "%"},
      {"measurement": "1st Desorp. (%)", "setting": "[1]; DVS 25° C., 90% RH", "value": 31.04, "unit": "%"},
      {"measurement": "2nd Sorp. (%)", "setting": "[1]; DVS 25° C., 90% RH", "value": 27.39, "unit": "%"},
      {"measurement": "1st Sorp. (%)", "setting": "[1]; [12]", "value": 25.12, "unit": "%"},
      {"measurement": "2nd Desorp. (%)", "setting": "[1]; [12]", "value": 32.94, "unit": "%"},
      {"measurement": "1st Desorp. (%)", "setting": "[1]; DVS 25° C., 95% RH", "value": 42.35, "unit": "%"},
      {"measurement": "2nd Sorp. (%)", "setting": "[1]; DVS 25° C., 95% RH", "value": 44.74, "unit": "%"},
      {"measurement": "1st Sorp. (%)", "setting": "[1]; [13]", "value": 42.35, "unit": "%"},
      {"measurement": "2nd Desorp. (%)", "setting": "[1]; [13]", "value": 44.74, "unit": "%"},
      {"measurement": "XRPD after DVS test", "setting": "[1]; DVS 25° C., cycle 40-0-95-0-40% RH, listed as I-4 Form A", "value": "Form changed"},
      {"measurement": "hygroscopicity", "setting": "[1]; DVS at 25° C., listed as I-4 Form A", "value": "very hygroscopic"},
      {"measurement": "water absorbed", "setting": "[1]; from 40% RH to 95% RH, 25° C., listed as I-4 Form A", "value": "about 40 % water by weight"},
      {"measurement": "form after the DVS test (XRPD)", "setting": "[1]; listed as I-4 Form A", "value": "Form changed"},
      {"measurement": "Salt screening result (anti-solvent)", "setting": "[2]; 1.0 equiv. methanesulfonic acid, Acetone/MTBE", "value": "+ (I-4 Form A) (Salt hits)"},
      {"measurement": "Chiral purity of salt screening solid", "setting": "[2]; anti-solvent, 1.0 equiv. methanesulfonic acid, Acetone/MTBE", "value": "Chiral purity: 98.3%"},
      {"measurement": "Chiral purity (by HPLC)", "setting": "[2]; [14]", "value": 98.3, "unit": "%"},
      {"measurement": "Crystallinity (By XRPD)", "setting": "[2]; [14]", "value": "Low"}
    ]}
  ]
}
